Measured values as given in PMC11402452, “Etomoxir-carnitine, a novel pharmaco-metabolite of etomoxir, inhibits phospholipases A2 and mitochondrial respiration” (Journal of Lipid Research, 2024).

Biological target: T1, calcium-independent phospholipase A2γ (iPLA2γ) (Homo sapiens, UniProt Q9NP80)
T1 construct: gene PNPLA8; 63 kDa recombinant human peroxisomal isoform, N-terminal (His)6 tag
T1 sequence (Q9NP80 221-782 limits assumed): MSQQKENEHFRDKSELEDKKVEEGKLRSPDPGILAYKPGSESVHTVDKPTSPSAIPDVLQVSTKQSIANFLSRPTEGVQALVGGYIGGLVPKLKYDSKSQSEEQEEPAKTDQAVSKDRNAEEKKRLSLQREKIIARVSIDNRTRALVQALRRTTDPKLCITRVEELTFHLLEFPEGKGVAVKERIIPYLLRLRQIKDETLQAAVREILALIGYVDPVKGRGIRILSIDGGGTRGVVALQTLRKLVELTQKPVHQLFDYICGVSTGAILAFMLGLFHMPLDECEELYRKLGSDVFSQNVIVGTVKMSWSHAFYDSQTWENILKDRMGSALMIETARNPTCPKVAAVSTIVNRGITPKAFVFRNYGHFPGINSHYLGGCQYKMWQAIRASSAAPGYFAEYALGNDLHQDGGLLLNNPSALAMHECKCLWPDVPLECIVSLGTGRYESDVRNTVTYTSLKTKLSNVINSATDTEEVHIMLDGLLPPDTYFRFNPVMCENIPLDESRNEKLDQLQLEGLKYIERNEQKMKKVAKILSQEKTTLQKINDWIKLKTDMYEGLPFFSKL
Assay: purified recombinant PLA2 activity assay (PAPC/diolein SUVs), LPC production by ESI-MS
Format: biochemical

`C[N+](C)(C)C[C@@H](CC(=O)O)OC(=O)[C@@]1(CCCCCCOc2ccc(Cl)cc2)CO1` [ETO-carnitine, (R)-3-carboxy-2-(((R)-2-(6-(4-chlorophenoxy)hexyl)oxirane-2-carbonyl)oxy)-N,N,N-trimethylpropan-1-aminium] was tested, and the IC50 was about 1.75 nM.
